# Legend:
# [1] = test system: Klebsiella aerogenes; experiment: Antimicrobial activity against multidrug resistant Enterobacter aerogenes isolate 1 by broth dilution method; format: functional
# [2] = test system: Klebsiella aerogenes; experiment: Antimicrobial activity against multidrug resistant Enterobacter aerogenes isolate 2 by broth dilution method; format: functional
# [3] = test system: Klebsiella aerogenes; experiment: Antimicrobial activity against multidrug resistant Enterobacter aerogenes isolate 3 by broth dilution method; format: functional
# [4] = test system: Klebsiella aerogenes; experiment: Antimicrobial activity against multidrug resistant Enterobacter aerogenes isolate 4 by broth dilution method; format: functional
# [5] = test system: Klebsiella aerogenes; experiment: Antimicrobial activity against multidrug resistant Enterobacter aerogenes isolate 5 by broth dilution method; format: functional
# [6] = test system: Klebsiella aerogenes; experiment: Antimicrobial activity against multidrug resistant Enterobacter aerogenes isolate 6 by broth dilution method; format: functional
# [7] = test system: Klebsiella aerogenes; experiment: Antimicrobial activity against multidrug resistant Enterobacter aerogenes isolate 7 by broth dilution method; format: functional
# [8] = test system: Klebsiella aerogenes; experiment: Antimicrobial activity against multidrug resistant Enterobacter aerogenes isolate 8 by broth dilution method; format: functional
# [9] = test system: Klebsiella aerogenes; experiment: Antimicrobial activity against multidrug resistant Enterobacter aerogenes isolate 9 by broth dilution method; format: functional
# [10] = test system: Klebsiella aerogenes; experiment: Antimicrobial activity against multidrug resistant Enterobacter aerogenes isolate 10 by broth dilution method; format: functional
# [11] = test system: Klebsiella aerogenes; experiment: Antimicrobial activity against multidrug resistant Enterobacter aerogenes isolate 11 by broth dilution method; format: functional
# [12] = test system: Klebsiella aerogenes; experiment: Antimicrobial activity against multidrug resistant Enterobacter aerogenes isolate 12 by broth dilution method; format: functional
# [13] = test system: Klebsiella aerogenes; experiment: Antimicrobial activity against multidrug resistant Enterobacter aerogenes isolate 13 by broth dilution method; format: functional
# [14] = test system: Klebsiella aerogenes; experiment: Antimicrobial activity against multidrug resistant Enterobacter aerogenes isolate 14 by broth dilution method; format: functional
# [15] = test system: Klebsiella aerogenes; experiment: Antimicrobial activity against multidrug resistant Enterobacter aerogenes isolate 15 by broth dilution method; format: functional
# [16] = test system: Klebsiella aerogenes; experiment: Antimicrobial activity against multidrug resistant Enterobacter aerogenes isolate 16 by broth dilution method; format: functional
# [17] = test system: Klebsiella aerogenes; experiment: Antimicrobial activity against multidrug resistant Enterobacter aerogenes isolate 17 by broth dilution method; format: functional
# [18] = test system: Klebsiella aerogenes; experiment: Antimicrobial activity against multidrug resistant Enterobacter aerogenes isolate 18 by broth dilution method; format: functional
# [19] = test system: Klebsiella aerogenes; experiment: Antimicrobial activity against multidrug resistant Enterobacter aerogenes isolate 19 by broth dilution method; format: functional
# [20] = test system: Klebsiella aerogenes; experiment: Antimicrobial activity against multidrug resistant Enterobacter aerogenes isolate 20 by broth dilution method; format: functional
# [21] = test system: Klebsiella aerogenes; experiment: Antimicrobial activity against multidrug resistant Enterobacter aerogenes isolate 21 by broth dilution method; format: functional
# [22] = test system: Klebsiella aerogenes; experiment: Antimicrobial activity against multidrug resistant Enterobacter aerogenes isolate 22 by broth dilution method; format: functional
# [23] = test system: Klebsiella aerogenes; experiment: Antimicrobial activity against multidrug resistant Enterobacter aerogenes isolate 23 by broth dilution method; format: functional
# [24] = test system: Klebsiella aerogenes; experiment: Antimicrobial activity against multidrug resistant Enterobacter aerogenes isolate 24 by broth dilution method; format: functional
# [25] = test system: Klebsiella aerogenes; experiment: Antimicrobial activity against multidrug resistant Enterobacter aerogenes isolate 25 by broth dilution method; format: functional
# [26] = test system: Klebsiella aerogenes; experiment: Antimicrobial activity against multidrug resistant Enterobacter aerogenes isolate 26 by broth dilution method; format: functional
# [27] = test system: Klebsiella aerogenes; experiment: Antimicrobial activity against multidrug resistant Enterobacter aerogenes isolate 27 by broth dilution method; format: functional
# [28] = test system: Klebsiella pneumoniae; experiment: Antimicrobial activity against multidrug resistant Klebsiella pneumoniae ATCC 11296 by broth dilution method; format: functional
# [29] = test system: Klebsiella pneumoniae; experiment: Antimicrobial activity against multidrug resistant Klebsiella pneumoniae isolate 1 by broth dilution method; format: functional
# [30] = test system: Klebsiella pneumoniae; experiment: Antimicrobial activity against multidrug resistant Klebsiella pneumoniae isolate 2 by broth dilution method; format: functional
# [31] = test system: Klebsiella pneumoniae; experiment: Antimicrobial activity against multidrug resistant Klebsiella pneumoniae isolate 3 by broth dilution method; format: functional
# [32] = test system: Klebsiella pneumoniae; experiment: Antimicrobial activity against multidrug resistant Klebsiella pneumoniae isolate 4 by broth dilution method; format: functional
# [33] = test system: Klebsiella pneumoniae; experiment: Antimicrobial activity against multidrug resistant Klebsiella pneumoniae isolate 5 by broth dilution method; format: functional
# [34] = test system: Klebsiella pneumoniae; experiment: Antimicrobial activity against multidrug resistant Klebsiella pneumoniae isolate 6 by broth dilution method; format: functional
# [35] = test system: Klebsiella pneumoniae; experiment: Antimicrobial activity against multidrug resistant Klebsiella pneumoniae isolate 7 by broth dilution method; format: functional
# [36] = test system: Klebsiella pneumoniae; experiment: Antimicrobial activity against multidrug resistant Klebsiella pneumoniae isolate 8 by broth dilution method; format: functional
# [37] = test system: Klebsiella pneumoniae; experiment: Antimicrobial activity against multidrug resistant Klebsiella pneumoniae isolate 9 by broth dilution method; format: functional
# [38] = test system: Klebsiella pneumoniae; experiment: Antimicrobial activity against multidrug resistant Klebsiella pneumoniae isolate 10 by broth dilution method; format: functional
# [39] = test system: Klebsiella pneumoniae; experiment: Antimicrobial activity against multidrug resistant Klebsiella pneumoniae isolate 11 by broth dilution method; format: functional
# [40] = test system: Klebsiella pneumoniae; experiment: Antimicrobial activity against multidrug resistant Klebsiella pneumoniae isolate 12 by broth dilution method; format: functional
# [41] = test system: Klebsiella pneumoniae; experiment: Antimicrobial activity against multidrug resistant Klebsiella pneumoniae isolate 13 by broth dilution method; format: functional
# [42] = test system: Klebsiella pneumoniae; experiment: Antimicrobial activity against multidrug resistant Klebsiella pneumoniae isolate 14 by broth dilution method; format: functional
# [43] = test system: Klebsiella pneumoniae; experiment: Antimicrobial activity against multidrug resistant Klebsiella pneumoniae isolate 15 by broth dilution method; format: functional
# [44] = test system: Klebsiella pneumoniae; experiment: Antimicrobial activity against multidrug resistant Klebsiella pneumoniae isolate 16 by broth dilution method; format: functional
# [45] = test system: Klebsiella aerogenes; experiment: Antimicrobial activity against multidrug resistant Enterobacter aerogenes ATCC 15038 by broth dilution method; format: functional
# [46] = test system: Klebsiella aerogenes; experiment: Antimicrobial activity against multidrug resistant Enterobacter aerogenes ATCC 15038 harboring pDrive plasmid by broth dilution method; format: functional
# [47] = test system: Klebsiella aerogenes; experiment: Antimicrobial activity against multidrug resistant Enterobacter aerogenes ATCC 15038 harboring pACM204 plasmid by broth dilution method; format: functional
# [48] = test system: Klebsiella aerogenes; experiment: Antimicrobial activity against multidrug resistant Enterobacter aerogenes ATCC 15038 harboring pDrive plasmid expressing ampC gene by broth dilution method; format: functional
# [49] = test system: Escherichia coli; experiment: Antimicrobial activity against multidrug resistant Escherichia coli ATCC 35218 by broth dilution method; format: functional
# [50] = test system: Escherichia coli; experiment: microbe, parasite or virus in culture; settings: DH5[alpha]
# Description: Antimicrobial activity against multidrug resistant Escherichia coli DH5[alpha] by broth dilution method
# [51] = test system: Escherichia coli; experiment: microbe, parasite or virus in culture; settings: DH5[alpha]; remark: listed apart in the source
# Description: Antimicrobial activity against multidrug resistant Escherichia coli DH5[alpha] harboring pDrive plasmid by broth dilution method
# [52] = test system: Escherichia coli; experiment: microbe, parasite or virus in culture; settings: DH5[alpha]; remark: listed apart in the source
# Description: Antimicrobial activity against multidrug resistant Escherichia coli DH5[alpha] harboring pDrive plasmid expressing ampC gene by broth dilution method
# [53] = test system: Escherichia coli; experiment: microbe, parasite or virus in culture; settings: DH5[alpha]; remark: listed apart in the source
# Description: Antimicrobial activity against multidrug resistant Escherichia coli DH5[alpha] harboring pACM204 plasmid by broth dilution method
# [54] = test system: Escherichia coli; experiment: microbe, parasite or virus in culture; settings: ATCC 35218
# Description: Antimicrobial activity against multidrug resistant Escherichia coli ATCC 35218 harboring pDrive plasmid by broth dilution method
# [55] = test system: Escherichia coli; experiment: microbe, parasite or virus in culture; settings: ATCC 35218; remark: listed apart in the source
# Description: Antimicrobial activity against multidrug resistant Escherichia coli ATCC 35218 harboring pDrive plasmid expressing ampC gene by broth dilution method
smiles,measurement,setting,value
C[C@@H](O)[C@H]1C(=O)N2C(C(=O)O)=C(SCCNC=N)C[C@H]12 [IMIPENEM ANHYDROUS],MIC,[1],1 µg/mL
same,MIC,[2],1 µg/mL
same,MIC,[3],1 µg/mL
same,MIC,[4],1 µg/mL
same,MIC,[5],2 µg/mL
same,MIC,[6],1 µg/mL
same,MIC,[7],2 µg/mL
same,MIC,[8],1 µg/mL
same,MIC,[9],1 µg/mL
same,MIC,[10],1 µg/mL
same,MIC,[11],1 µg/mL
same,MIC,[12],1 µg/mL
same,MIC,[13],2 µg/mL
same,MIC,[14],2 µg/mL
same,MIC,[15],0.5 µg/mL
same,MIC,[16],1 µg/mL
same,MIC,[17],1 µg/mL
same,MIC,[18],1 µg/mL
same,MIC,[19],2 µg/mL
same,MIC,[20],1 µg/mL
same,MIC,[21],2 µg/mL
same,MIC,[22],1 µg/mL
same,MIC,[23],1 µg/mL
same,MIC,[24],1 µg/mL
same,MIC,[25],1 µg/mL
same,MIC,[26],1 µg/mL
same,MIC,[27],1 µg/mL
same,MIC,[28],0.5 µg/mL
same,MIC,[29],0.25 µg/mL
same,MIC,[30],0.25 µg/mL
same,MIC,[31],2 µg/mL
same,MIC,[32],1 µg/mL
same,MIC,[33],0.5 µg/mL
same,MIC,[34],0.5 µg/mL
same,MIC,[35],0.5 µg/mL
same,MIC,[36],0.5 µg/mL
same,MIC,[37],0.5 µg/mL
same,MIC,[38],0.5 µg/mL
same,MIC,[39],0.5 µg/mL
same,MIC,[40],1 µg/mL
same,MIC,[41],1 µg/mL
same,MIC,[42],0.5 µg/mL
same,MIC,[43],1 µg/mL
same,MIC,[44],0.5 µg/mL
same,MIC,[45],0.25 µg/mL
same,MIC,[46],0.5 µg/mL
same,MIC,[47],0.5 µg/mL
same,MIC,[48],2 µg/mL
same,MIC,[49],0.125 µg/mL
same,MIC,[50],0.25 µg/mL
same,MIC,[51],0.25 µg/mL
same,MIC,[52],2 µg/mL
same,MIC,[53],0.5 µg/mL
same,MIC,[54],0.25 µg/mL
same,MIC,[55],0.5 µg/mL
